Patent US20050181376A1, “Antisense modulation of microsomal triglyceride transfer protein expression” (ISIS Pharmaceuticals, Inc., priority 2001, published 2005)
Strand notation (5' to 3'): a small letter for the sugar, then the base; units joined by * are phosphorothioate-linked, units joined directly phosphodiester-linked; [ ] holds rarer units or linkages, { } end groups; capitals alone tell only the bases. e = 2'-O-(2-methoxyethyl) (MOE); [5mC] = 5-methylcytosine; d = 2'-deoxy (DNA)

How the values were obtained:
[1] = tested on: human microsomal triglyceride transfer protein mRNA; test: Antisense inhibition of human microsomal triglyceride transfer protein mRNA levels, quantitative real-time PCR; settings: averages from two experiments
[2] = tested on: mouse microsomal triglyceride transfer protein mRNA; test: Antisense inhibition of mouse microsomal triglyceride transfer protein mRNA levels in primary hepatocytes, quantitative real-time PCR; type: cell-based; set-up: concentration or dose not given beside the values; settings: averages from two experiments
Experimental: Primary mouse hepatocytes were prepared from CD-1 mice purchased from Charles River Labs (Wilmington, Mass.) and were routinely cultured in Hepatocyte Attachment Media (Gibco) supplemented with 10% Fetal Bovine Serum (Gibco/Life Technologies, Gaithersburg, Md.), 250 nM dexamethasone (Sigma), and 10 nM bovine insulin (Sigma). Cells were seeded into 96-well plates (Falcon-Primaria #3872) at a density of 10000 cells/well for use in RT-PCR analysis.
Cells were harvested 16-24 hours after oligonucleotide treatment.
All cytidine residues are 5-methylcytidines. […] Data are averages from two experiments. If present, “N.D.” indicates “no data”.

| Substance | % INHIB (inhibition of human microsomal triglyceride transfer protein mRNA levels) [1] | % INHIB (inhibition of mouse microsomal triglyceride transfer protein mRNA levels) [2] |
| --- | --- | --- |
| GCGGTAGCCCACGCTGTCTT (antisense eG*e[5mC]*eG*eG*eT*dA*dG*d[5mC]*d[5mC]*d[5mC]*dA*d[5mC]*dG*d[5mC]*dT*eG*eT*e[5mC]*eT*eT) [ISIS 144412] | at least 30% |  |
| 144447 (eG*eA*eG*e[5mC]*eT*dT*d[5mC]*dA*dT*dA*dT*dA*d[5mC]*dA*dT*eT*eG*eA*eT*e[5mC]; antisense) [compound 144447] | 70% |  |
| GAGCTTCATATACATTGATC (antisense eG*eA*eG*e[5mC]*eT*dT*d[5mC]*dA*dT*dA*dT*dA*d[5mC]*dA*dT*eT*eG*eA*eT*e[5mC]) [ISIS 144447] | at least 30% |  |
| CCCGTCATGCTTAAGGAAGT (antisense e[5mC]*e[5mC]*e[5mC]*eG*eT*d[5mC]*dA*dT*dG*d[5mC]*dT*dT*dA*dA*dG*eG*eA*eA*eG*eT) [ISIS 144448] | at least 30% |  |
| ATGTGCCTTCTACCTTAAGG (antisense eA*eT*eG*eT*eG*d[5mC]*d[5mC]*dT*dT*d[5mC]*dT*dA*d[5mC]*d[5mC]*dT*eT*eA*eA*eG*eG) [ISIS 144449] | at least 30% |  |
| 144446 (eG*eA*eG*eA*eA*dT*dA*dA*d[5mC]*dT*dA*dT*dT*d[5mC]*dT*eG*eA*e[5mC]*eT*eG; antisense) [compound 144446] | 28% |  |
| GTAGCATACTGCATATACCC (antisense eG*eT*eA*eG*e[5mC]*dA*dT*dA*d[5mC]*dT*dG*d[5mC]*dA*dT*dA*eT*eA*e[5mC]*e[5mC]*e[5mC]) [ISIS 144443] | at least 30% |  |
| 144444 (eG*eA*eT*eG*eA*dT*dT*d[5mC]*dA*dA*dA*dA*dT*dG*dA*e[5mC]*eG*e[5mC]*eT*eG; antisense) [compound 144444] | 32% |  |
| 144438 (eG*e[5mC]*eT*eT*e[5mC]*dA*dT*d[5mC]*d[5mC]*dT*dT*dG*dT*d[5mC]*d[5mC]*eA*eT*e[5mC]*eT*eG; antisense) [compound 144438] | 53% |  |
| 144424 (eA*eG*e[5mC]*eA*eG*dA*dT*dA*d[5mC]*dA*dT*d[5mC]*d[5mC]*dT*dG*eG*eT*eG*eT*e[5mC]; antisense) [compound 144424] | 23% |  |
| 144429 (e[5mC]*eT*eT*eG*eA*d[5mC]*dG*dT*d[5mC]*d[5mC]*dA*dT*dG*dT*dA*eG*eG*eA*eT*eG; antisense) [compound 144429] | 0% |  |
| 144416 (eA*eG*eG*eT*eG*dG*dT*dG*dA*d[5mC]*dA*dG*dA*dT*dG*eT*eA*eG*e[5mC]*eT; antisense) [compound 144416] | 27% |  |
| CATGCCACATTGTGTCCCTT (antisense e[5mC]*eA*eT*eG*e[5mC]*d[5mC]*dA*d[5mC]*dA*dT*dT*dG*dT*dG*dT*e[5mC]*e[5mC]*e[5mC]*eT*eT) [ISIS 144441] | at least 30% |  |
| CACCTGCCACTTGCTTCCCG (all phosphorothioate, sugars by position and methylation of C not given here; 2'-MOE wings and deoxy gap) [ISIS 144479, 2′-MOE gapmer phosphorothioate antisense oligonucleotide to mouse MTP] |  | at least 30% |
| 144509 (eA*e[5mC]*eT*eG*eT*dG*d[5mC]*dT*d[5mC]*dT*d[5mC]*dA*dG*dA*dG*eA*eG*e[5mC]*eA*eA; antisense) [compound 144509] |  | 0% |
| 144487 (e[5mC]*e[5mC]*e[5mC]*eA*eG*dG*dA*dT*d[5mC]*dA*dG*d[5mC]*dT*dT*d[5mC]*eT*eT*eA*eG*e[5mC]; antisense) [compound 144487] |  | 19% |
